# How the values were obtained:
# [1] = test system: recombinant human anti-SARS-CoV antibody 03-018; type: binding; set-up: Binding of antibody 03-018 to linear peptides of the N protein of SARS-CoV Urbani / Binding of antibody 03-018 to looped/cyclic peptides of the N protein of SARS-CoV Urbani: unit not given here
# [2] = test system: antibodies in sera from SARS patients (sera 1a, 1b, 2, 6, 37, 62, London, SARS-yellow, SARS-green); type: binding, human; set-up: Binding of serum 6 to linear peptides of protein X1 of SARS-CoV Urbani / Binding of serum 37 to linear peptides of protein X1 of SARS-CoV Urbani / Binding of serum 6 to looped/cyclic peptide (PEPSCAN-ELISA) / Binding of serum 37 to looped/cyclic peptide (PEPSCAN-ELISA) / Binding of serum 37 to looped/cyclic peptides of protein X1 of SARS-CoV Urbani / Binding of serum 6 to linear peptides of protein X2 / Binding of serum 37 to linear peptides of protein X2 / Binding of serum 37 to looped/cyclic peptides of protein X2 of SARS-CoV Urbani / Binding of serum 6 to linear peptides of protein M of SARS-CoV Urbani / Binding of serum 37 to linear peptides of protein M of SARS-CoV Urbani / Binding of serum 6 to looped/cyclic peptides of protein M of SARS-CoV Urbani / Binding of serum 37 to looped/cyclic peptides of protein M of SARS-CoV Urbani / Binding of serum 6 to linear peptides of protein X3 of SARS-CoV Urbani / Binding of serum 37 to linear peptides of protein X3 of SARS-CoV Urbani / Binding of serum 37 to looped/cyclic peptides of protein X3 of SARS-CoV Urbani / Binding of serum 6 to linear peptides of protein X4 of SARS-CoV Urbani / Binding of serum 37 to linear peptides of protein X4 of SARS-CoV Urbani / Binding of serum 37 to looped/cyclic peptides of protein X4 of SARS-CoV Urbani / Binding of serum 6 to linear peptides of protein X5 of SARS-CoV Urbani / Binding of serum 37 to linear peptides of protein X5 of SARS-CoV Urbani / Binding of serum 37 to looped/cyclic peptides of protein X5 of SARS-CoV Urbani / Binding of serum 6 to linear peptides of protein N of SARS-CoV Urbani / Binding of serum 37 to linear peptides of protein N of SARS-CoV Urbani / Binding of serum 6 to linear peptide (PEPSCAN-ELISA) / Binding of serum 1a to looped/cyclic peptides of protein N of SARS-CoV Urbani / Binding of serum 1b to looped/cyclic peptides of protein N of SARS-CoV Urbani / Binding of serum 2 to looped/cyclic peptides of protein N of SARS-CoV Urbani / Binding of serum 6 to looped/cyclic peptides of protein N of SARS-CoV Urbani / Binding of serum 37 to looped/cyclic peptides of protein N of SARS-CoV Urbani / Binding of serum 62 to looped/cyclic peptides of protein N of SARS-CoV Urbani / Binding of serum London to looped/cyclic peptides of protein N of SARS-CoV Urbani / Binding of serum SARS-green to looped/cyclic peptides of protein N of SARS-CoV Urbani: unit not given here
# [3] = test system: control sera (pooled serum of ten healthy LUMC hospital workers; commercial negative donor pooled serum from the Dutch bloodbank); type: binding, human; set-up: Binding of Control serum LUMC to linear peptides / Binding of Control serum Blood-bank to linear peptides / Binding of Control serum LUMC to looped peptides / Binding of Control Serum Blood-Bank to Looped peptides / Binding of Control serum LUMC to linear peptides of the protein M of SARS-CoV Urbani / Binding of Control serum Blood-bank to linear peptides of the protein M of SARS-CoV Urbani / Binding of Control serum LUMC to looped peptides of the protein M of SARS-CoV Urbani / Binding of Control Serum Blood-Bank to Looped peptides of the protein M of SARS-CoV Urbani: unit not given here
# [4] = test system: rabbit serum obtained by immunizing a rabbit with the SARS-CoV strain Frankfurt 1; type: binding; set-up: Binding of a rabbit serum to linear peptides / Binding of a rabbit serum to looped peptides / Rabbit serum linear peptides / Rabbit serum looped peptides / Binding of a rabbit serum to linear peptides of protein N of SARS-CoV Urbani (Rabbit serum linear peptides) / Binding of a rabbit serum to looped/cyclic peptides of protein N of SARS-CoV Urbani (Rabbit serum looped peptides): unit not given here
Sequence,Binding of antibody 03-018 to linear peptides of the N protein of SARS-CoV Urbani [1],Binding of antibody 03-018 to looped/cyclic peptides of the N protein of SARS-CoV Urbani [1],Binding of serum 1a to looped/cyclic peptides of protein N of SARS-CoV Urbani [2],Binding of serum 1b to looped/cyclic peptides of protein N of SARS-CoV Urbani [2],Binding of serum 2 to looped/cyclic peptides of protein N of SARS-CoV Urbani [2],Binding of serum 6 to looped/cyclic peptides of protein N of SARS-CoV Urbani [2],Binding of serum 37 to looped/cyclic peptides of protein N of SARS-CoV Urbani [2],Binding of serum 62 to looped/cyclic peptides of protein N of SARS-CoV Urbani [2],Binding of serum London to looped/cyclic peptides of protein N of SARS-CoV Urbani [2],Binding of serum SARS-green to looped/cyclic peptides of protein N of SARS-CoV Urbani [2],Binding of serum SARS-yellow to looped/cyclic peptides of protein N of SARS-CoV Urbani [2],Binding of a rabbit serum to linear peptides of protein N of SARS-CoV Urbani (Rabbit serum linear peptides) [4],Binding of a rabbit serum to looped/cyclic peptides of protein N of SARS-CoV Urbani (Rabbit serum looped peptides) [4],other results
EPKKDKKKKTDEAQP,0.1,0.2,0.2,0.1,2.1,0.1,0.4,0.3,0.3,0.0,0.1,0.2,0.3,Binding of serum 1a to linear peptides of protein N of SARS-CoV Urbani [2]: 0.2; Binding of serum 1b to linear peptides of protein N of SARS-CoV Urbani [2]: 0.1; Binding of serum 2 to linear peptides of protein N of SARS-CoV Urbani [2]: 2.4; Binding of serum 6 to linear peptides of protein N of SARS-CoV Urbani [2]: 0.2; Binding of serum 37 to linear peptides of protein N of SARS-CoV Urbani [2]: 0.7; Binding of serum 62 to linear peptides of protein N of SARS-CoV Urbani [2]: 0.7; Binding of serum London to linear peptides of protein N of SARS-CoV Urbani [2]: 0.7; Binding of serum SARS-green to linear peptides of protein N of SARS-CoV Urbani [2]: 0.5; Binding of serum SARS-yellow to linear peptides of protein N of SARS-CoV Urbani [2]: 0.6; Control Serum Blood-Bank Looped peptides [3]: 0.5; Control serum Blood-bank linear peptides [3]: 0.8; Control serum LUMC linear peptides [3]: 0.8; Control serum LUMC looped peptides [3]: 0.3
QTVTKKSAAEASKKP,0.1,0.2,0.3,0.2,0.4,0.2,0.5,0.3,0.3,0.0,0.2,0.2,0.3,"Recognition of the peptide by sera of SARS-CoV infected individuals, and form (linear, looped/cyclic) in which it is recognized [2]: recognized in linear form; Binding of Control Serum Blood-Bank to Looped peptides [3]: 0.5; Binding of Control serum Blood-bank to linear peptides [3]: 0.8; Binding of Control serum LUMC to linear peptides [3]: 0.9; Binding of Control serum LUMC to looped peptides [3]: 0.5"
